Results on 14 compounds are retold here after patent publication US20040180943A1, “Oxazolone analogs as amyloid aggregation inhibitors and for the treatment of alzheimer's disease and disorders related to amyloidosis” (priority 2002, published 2004).

Values joined by “and” are separate entries in the source; they are usually repeats but may differ in a detail not shown here. Equal entries are not always repeated. Where two headings read alike, the source gives them in different places. Bounds are passed on as bounds.

Common to all, as to format: biochemical
Experiment [1] addresses T1, Aβ(1-40) peptide (Homo sapiens, UniProt P05067).
T1 construct: Soluble Aβ(1-40) peptide (Bachem, Torrance, Calif.); purchased Bachem, Torrance, Calif
Description: BASSR (Beta-Amyloid Self-Seeding Radioassay), inhibitors of self-seeded amyloid fibril growth. To be noted: 30 μM soluble Aβ(1-40) + 125I-labeled Aβ(1-40), pH 7.5, 37° C. for 3 to 5 hours, filtration. As to the method: 1. BASSR (Beta-Amyloid Self-Seeding Radioassay)
An assay for inhibitors of self-seeded amyloid fibril growth
(§1) Assay Buffer—50 mM sodium phosphate, pH 7.5, 100 mM NaCl, 0.02% NaN3, 1 M urea (filter and store at 4° C.)
Soluble Aβ(1-40) peptide (Bachem, Torrance, Calif.)—2.2 mg/mL in deionized H2O (is stored in aliquots at −20° C.; is kept on ice when thawed) will self-seed after 1 week storage. Typically, the solution is stored until no lag phase is seen in the assay.
^125I-labeled Aβ(1-40)—150K to 350K cpm/μL in 100% acetonitrile—0.1% trifluoroacetic acid (TFA)—1% β-mercaptoethanol (aliquots stored at −20° C.). ^125I-labeled Aβ(1-40) is made in accordance with the procedure set forth by LeVine H., III, in Neurobiol. Aging, 1995;16:755, which is hereby incorporated by reference, or this reagent may be purchased from Amersham, Arlington Heights, Ill.
Final assay conditions: 30 μM soluble Aβ(1-40) in deionized water in assay buffer+20 K to 50 K cpm ^125I-labeled Aβ(1-40) per assay. Compound to be tested is dissolved in dimethylsulfoxide (DMSO), typically 5 to 50 mM stock, such that the final concentration of DMSO is <1% v/v in the assay.
Assay: Reaction mixture for 50 assays (on ice) is comprised of 0.1 to 0.2 μL of ^125I-labeled A^125I-labeled Aβ(1-40)+1 μL of soluble Aβ(1-40)+13.5 μL assay buffer per assay. The following are the amounts of the components of the reaction mixture sufficient for 50 assay wells.
1) The reaction mixture of above is prepared by mixing components and storing on ice.
2) 14.5 μL of the reaction mixture is pipetted into each of 50 wells on a polypropylene U-bottom 96-well microtiter plate on ice (Costar 3794).
(§2) 3) 1.7 μL of diluted compound to be tested is added to each well in a column of eight, including solvent control. Serial 3-fold dilutions from 1 mM (100 μM final) in assay buffer−urea=7 dilutions+zero. Each 96-well plate can therefore accommodate 11 samples+1 Congo Red control (0.039-5 μM final in 2-fold steps).
4) The plate with aluminum film (Beckman 538619) is sealed and incubated for 10 minutes on ice.
(§3) 5) The temperature is raised to 37° C. and incubated for 3 to 5 hours (depending on the lot of the peptide).
6) The aluminum film is removed and 200 μL/well of ice cold assay buffer with urea is added. The radiolabeled fibrils are collected by vacuum filtration through 0.2 μm pore size GVWP filters in 96-well plates (Millipore MAGV N22, Bedford, Mass.). The radioactivity of the filters is determined by using standard methods well-known to those skilled in the art.

Experiment [2] concerns the target T2, Aβ (1-40) (Homo sapiens, UniProt P05067).
T2 construct: Soluble Aβ (1-40)—2.2 mg/mL in deionized H2O
Description: BASST (Beta-Amyloid Self-Seeding, ThioflavinT), inhibitors of self-seeded amyloid fibril growth. Particulars: 30 μM soluble Aβ(1-40), pH 7.5, 37° C. for 3 to 5 hours, thioflavin T fluorescence. As to the method: 2. BASST (Beta-Amyloid Self-Seeding, ThioflavinT)
An assay for inhibitors of self-seeded arnyloid fibril growth
as §1
Soluble Aβ (1-40)—2.2 mg/mL in deionized H2O (is stored in aliquots at −20° C.; is kept on ice when thawed) will self-seed after 1 week storage. Typically, the solution is stored until no lag phase is seen in the assay.
Final assay conditions: 30 μM soluble Aβ(1-40) in deionized water in assay buffer. Compound to be tested is dissolved in DMSO, typically 5 to 50 mM stock, such that the final concentration of DMSO is <1% v/v in the assay.
Assay: Reaction mixture for 50 assays (on ice) is comprised of 1 μL of soluble Aβ(1-40)+13.5 μL assay buffer per assay. The following are the amounts of the components of the reaction mixture that result in each of the 50 assay wells.
1) The reaction mix above is prepared by mixing the components and storing on ice.
2) 14.5 μL of reaction mixture is pipetted into each of 50 wells of a polystyrene U-bottom, 96-well microtiter plate (Corning 25881-96) on ice.
as §2
4) The plate with aluminum film is sealed and incubated for 10 minutes on ice.
as §3
6) The aluminum film is removed and 250 μL/well of 5 μM thioflavin T (ThT) [T-3516, Sigma-Aldrich] is added in 50 mM glycine-NaOH, pH 8.5. Fluorescence is read on a plate reader (ex=440 nm/20 nm; em=485 nm/20 nm) within 5 minutes.

Experiment [3] addresses T3, Aβ (1-42) (Homo sapiens, UniProt P05067).
T3 construct: Required Aβ (1-42) (California Peptide) is dried from its hexafluoroisopropanol (HFIP) stock solution; purchased California Peptide
The experiment in a line: Batym Assay (Aβ(1-42) aggregation, Thioflavin T fluorescence). Particulars: Aβ 1-42 final concentration 100 μM, PBS pH 7.4, 37° C. for 1 day, ThT fluorescence. As to the method:
Required Aβ (1-42) (California Peptide) is dried from its hexafluoroisopropanol (HFIP) stock solution. The Aβ (1-42) is dissolved in DMSO and then mixed with phosphate buffered saline (PBS) (pH 7.4). The mixed Aβ (1-42) solution is filtered with a GVWP 0.22 μm syringe filter (Millipore, Bedford, Mass.). The compound to be tested in DMSO (50 times concentrate) is put into each well (0.5 μL/well) of a 96-well plate. The Aβ(1-42) solution is added into each well (25 μL/well). The plate is centrifuged at 1000 g for 5 minutes and incubated at 37° C. for 1 day (Aβ 1-42; final concentration 100 μM).
After incubation Thioflavin T (ThT) (30 μM) solution in glycine-NaOH buffer (pH 8.5, 50 mM) is added into each well (250 μL/well), fluorescence is measured (ex=440/20 nm, em=485/20 nm) using a fluorescence plate reader. The inhibitory activity is calculated as the reduction of fluorescence with the following formula:
Inhibition(%)={(F(Aβ)−F(Aβ+compound)}/{F(Aβ)−F(solvent−compound)}×100.
The IC50s are calculated by a curve-fitting program using the equation given below. The data is obtained from two different experiments in triplicate.
x=concentration of tested compound (M),

T3 sequence (P05067 672-713): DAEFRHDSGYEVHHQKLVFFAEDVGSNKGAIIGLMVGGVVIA
T2 sequence (P05067 672-711): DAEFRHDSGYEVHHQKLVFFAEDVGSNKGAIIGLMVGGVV
T1 sequence (P05067 672-711): as above

What is called IC50 is the concentration needed to halve the response being measured. Regarding `O=C1OC(c2ccccc2)=N/C1=C\c1ccccc1` [compound 1, 4-Benzylidene-2-phenyl-4H-oxazol-5-one], the IC50 in experiment [1] (read-out: BASSR (IC50 = μM)) and in experiment [2] (read-out: BASST (IC50 = μM)) was > 100 µM throughout.

Consider `O=C1OC(c2ccccc2)=N/C1=C\c1ccc2c(c1)OCO2` [compound 2, 4-1,3-Benzodioxol-5-ylmethylene-2-phenyl-4H-oxazol-5-one], for which the half-maximal inhibitory concentration (IC50) in experiment [1] (read-out: BASSR (IC50 = μM)) is 21 µM; in experiment [3], > 100 µM.

In the case of `COc1c(/C=C2\N=C(c3ccccc3)OC2=O)cc([N+](=O)[O-])cc1[N+](=O)[O-]` [compound 3, 4-(2-Methoxy-3,5-dinitro-benzylidene)-2-phenyl-4H-oxazol-5-one], the results for the IC50 in experiment [1] (BASSR (IC50 = μM)) and in experiment [2] (BASST (IC50 = μM)) were > 100 µM and 7 µM, respectively.

For `COc1ccc(/C=C2\N=C(c3ccccc3)OC2=O)cc1OC` [compound 4, 5(4H)-Oxazolone,4-[(3,4-dimethoxyphenyl)methylene]-2-phenyl-], the half-inhibitory concentration (IC50) was 7 µM and 8 µM in experiment [1] (read-out: BASSR (IC50 = μM)); > 100 µM in experiment [2] (read-out: BASST (IC50 = μM)); > 100 µM in experiment [3].

On to `COc1ccc(C2=N/C(=C\c3ccccc3)C(=O)O2)cc1` [compound 5, 4-Benzylidene-2-(4-methoxy-phenyl)-4H-oxazol-5-one], for which the IC50 in experiment [1] (read-out: BASSR (IC50 = μM)) stood at 16 µM.

For the compound `CN(C)c1ccc(/C=C2\N=C(c3ccccc3)OC2=O)c2ccccc12` [compound 6, 4-(4-Dimethylamino-naphthalen-1-ylmethylene)-2-phenyl-4H-oxazol-5-one], the IC50 in experiment [1] (read-out: BASSR (IC50 = μM)) is > 100 µM; in experiment [2] (read-out: BASST (IC50 = μM)) it was 2.6 µM; in experiment [3] it was 14.5 µM.

For the compound `CCCN(CCC)c1ccc(/C=C2/N=C(c3ccccc3)OC2=O)cc1` [compound 7, 4-(4-Dipropylamino-benzylidene)-2-phenyl-4H-oxazol-5-one], the IC50 in experiment [1] (read-out: BASSR (IC50 = μM)) is > 100 µM; in experiment [2] (read-out: BASST (IC50 = μM)), 8 µM; in experiment [3], 2.42 µM and 2.36 µM.

In the case of `COc1cccc(/C=C2\N=C(c3ccccc3)OC2=O)c1` [compound 8, 4-(3-Methoxy-benzylidene)-2-phenyl-4H-oxazol-5-one], the IC50 was > 100 µM in experiment [1] (read-out: BASSR (IC50 = μM)) and 7 µM in experiment [2] (read-out: BASST (IC50 = μM)).

For the compound `COc1cccc(/C=C2\N=C(c3ccc([N+](=O)[O-])cc3)OC2=O)c1OC` [compound 9, 4-(2,3-Dimethoxy-benzylidene)-2-(4-nitro-phenyl)-4H-oxazol-5-one], the IC50 in experiment [1] (read-out: BASSR (IC50 = μM)) is > 100 µM; in experiment [2] (read-out: BASST (IC50 = μM)) it was 12 µM.

Turning to `COc1ccc(/C=C2\N=C(c3ccccc3I)OC2=O)cc1OC` [compound 10, 4-(3,4-Dimethoxy-benzylidene)-2-(2-iodo-phenyl)-4H-oxazol-5-one], the IC50 is > 100 µM in experiment [1] (read-out: BASSR (IC50 = μM)) and 15 µM in experiment [2] (read-out: BASST (IC50 = μM)).

`O=C1OC(c2ccccc2)=N/C1=C\c1ccc(Cl)c(Cl)c1` [compound 11, 4-(3,4-Dichloro-benzylidene)-2-phenyl-4H-oxazol-5-one]: the IC50 in experiment [1] (read-out: BASSR (IC50 = μM)) worked out at 21 µM; in experiment [2] (read-out: BASST (IC50 = μM)), 30 µM.

Consider `Cc1ccc(/C=C2\N=C(c3ccccc3)OC2=O)cc1C` [compound 12, 4-(3,4-Dimethyl-benzylidene)-2-phenyl-4H-oxazol-5-one], for which the IC50 in experiment [1] (read-out: BASSR (IC50 = μM)) is > 100 µM.

Regarding `O=C1OC(c2ccc([N+](=O)[O-])cc2)=N/C1=C\c1ccc(Cl)c(Cl)c1` [compound 13, 4-(3,4-Dichloro-benzylidene)-2-(4-nitro-phenyl)-4H-oxazol-5-one], the IC50 came to 70 µM in experiment [1] (read-out: BASSR (IC50 = μM)) and 90 µM in experiment [2] (read-out: BASST (IC50 = μM)).

Regarding `O=C1OC(c2ccccc2)=N/C1=C\c1ccc(F)c(C(F)(F)F)c1` [compound 14, 4-(4-Fluoro-3-trifluoromethyl-benzylidene)-2-phenyl-4H-oxazol-5-one], the IC50 in experiment [1] (read-out: BASSR (IC50 = μM)) and in experiment [2] (read-out: BASST (IC50 = μM)) was > 100 µM each time.
